Measured values as given in ChEMBL document CHEMBL1147121, “Dammarane triterpenoids from the roots of Gentiana rigescens” (2007).
Active and inactive are the calls of the source. The rule behind the calls is not given here.

What was measured:
[1] = Antifungal activity against […] musarum at 1 mg/mL by disc diffusion method; details: Gloeosporium
Phytophthora litchii = experiment: Antifungal activity against Peronophythora litchii at 1 mg/mL by disc diffusion method
Glomerella cingulata = experiment: Antifungal activity against Glomerella cingulata at 1 mg/mL by disc diffusion method
[2] = Antifungal activity against Glorosprium musarum at 1 ug/mL by disc diffusion method; format: functional; details: Gloeosporium

SMILES	Activity [1]	Activity (Phytophthora litchii)	Activity (Glomerella cingulata)	inhibition zone (IZ) [2]
CC1(C)O[C@](C(=O)O)([C@H]2CC[C@]3(C)[C@@H]2CC[C@@H]2[C@@]4(C)CC[C@H](O[C@@H]5O[C@H](CO)[C@@H](O)[C@H](O)[C@H]5O[C@@H]5O[C@H](CO)[C@@H](O)[C@H](O)[C@H]5O)C(C)(C)[C@@H]4CC[C@]23C)C[C@H](O)[C@@H]1O [GENTIRIGEOSIDE E]	inactive	inactive	–	–
C[C@]12CC[C@H](O[C@@H]3O[C@H](CO)[C@@H](O)[C@H](O)[C@H]3O)[C@](C)(CO)[C@@H]1CC[C@]1(C)[C@@H]2CC[C@@H]2[C@@H]([C@]3(C(=O)O)C[C@H](O)[C@H](O)[C@](C)(CO)O3)CC[C@]21C	inactive	inactive	inactive	–
CC1(C)O[C@](C(=O)O)([C@H]2CC[C@]3(C)[C@@H]2CC[C@@H]2[C@@]4(C)CC[C@H](O)[C@](C)(CO)[C@@H]4CC[C@]23C)C[C@H](O)[C@@H]1O	inactive	inactive	inactive	–
CC1(C)O[C@](C(=O)O)([C@H]2CC[C@]3(C)[C@@H]2CC[C@@H]2[C@@]4(C)CC[C@H](O[C@@H]5O[C@H](CO)[C@@H](O)[C@H](O)[C@H]5O)[C@](C)(CO[C@@H]5O[C@H](CO)[C@@H](O)[C@H](O)[C@H]5O)[C@@H]4CC[C@]23C)C[C@H](O)[C@@H]1O [GENTIRIGEOSIDE C]	inactive	inactive	–	–
CC1(C)O[C@](C(=O)O)([C@H]2CC[C@]3(C)[C@@H]2CC[C@@H]2[C@@]4(C)CC[C@H](O[C@@H]5O[C@H](CO)[C@@H](O)[C@H](O)[C@H]5O)[C@](C)(CO)[C@@H]4CC[C@]23C)C[C@H](O)[C@@H]1O [GENTIRIGEOSIDE A]	inactive	inactive	–	–
COC(=O)Nc1nc2ccccc2[nH]1 [CARBENDAZIM]	–	–	–	4 mm
CC1(C)O[C@](C(=O)O)([C@H]2CC[C@]3(C)[C@@H]2CC[C@@H]2[C@@]4(C)CC[C@H](O[C@@H]5O[C@H](CO)[C@@H](O)[C@H](O)[C@H]5O[C@@H]5O[C@H](CO)[C@@H](O)[C@H](O)[C@H]5O)[C@](C)(CO)[C@@H]4CC[C@]23C)C[C@H](O)[C@@H]1O	inactive	inactive	inactive	–
